The results in this text go back to US9861102B2, “Methods for disinfection” (Markesbery Blue Pearl LLC, priority 2016, dated 2018).

In this test the test system is Bacillus subtilis bacteria. Kind of test: Closed-system control experiments of peracid reactant compounds, percent kill. In kind it is cell-based. The following applies: for Percent Kill: B. subtilis agar plates, electrostatic spray, 2-micron thickness, concentrations as in Example 2, charge as indicated. From the text:
The electrostatic spray device used was a Hurricane ES™ Portable Electrostatic Aerosol Applicator, modified to selectively impart either a positive, negative, or neutral charge when dispersing an aqueous composition containing a peracid reactant compound. In experiments where multiple aqueous compositions containing peracid reactant compounds were dispersed, the compositions were dispersed sequentially, and all aqueous compositions were dispersed with either a positive, negative, or neutral charge, as indicated below in Table 5. […] In all experiments, the percent by weight of distilled water was adjusted appropriately in response to the addition or deletion of a peracid reactant compound. […] Processing and handling of the agar plates containing the B. subtilis bacteria was conducted according to the procedure used in Example 3.

On to `OO` [Exp 7, Hydrogen Peroxide], for which the “Percent Kill” value was found to be 72%.
The same measure, in the same setting: to `CC(=O)O` [Exp 8, Acetic Acid] belongs 6%.
For the compound `CCO` [Exp 9, Ethanol], the “Percent Kill” value stood at 0%. Also, where the note is “ethanol on its own”, the “effect on bacterial growth” value is reported as “no effect”.
